Laboratory results: ChEMBL document CHEMBL1201862, “PubChem BioAssay data set” (2004)
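A five-concentration, 48-hour dose response in 96-well plates underlies each endpoint, interpolated linearly between surrounding concentrations. At the GI50, growth is halved.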 The source made the active and inactive calls. Cut-off read from the data, not from the text of the source: active = GI50 up to about 1.1 µM and inactive = higher.

What was measured:
Assay in all cases: DTP human tumour cell line panel, 48 h
CAKI-1 = test system: CAKI-1
OVCAR-4 = test system: OVCAR-4
PC-3 = test system: PC-3
HOP-62 = test system: HOP-62
SF-295 = test system: SF-295
HOP-92 = test system: HOP-92
LOX IMVI = test system: LOX IMVI
COLO 205 = test system: COLO 205
K562 = test system: K562
NCI-H460 = test system: NCI-H460
HCT-116 = test system: HCT-116
Hs-578T = test system: Hs-578T
UO-31 = test system: UO-31
SF-539 = test system: SF-539
786-0 = test system: 786-0
HT-29 = test system: HT-29
A549 = test system: A549
ACHN = test system: ACHN
UACC-62 = test system: UACC-62
SNB-78 = test system: SNB-78

Row | SMILES | GI50 (CAKI-1) | GI50 (OVCAR-4) | GI50 (PC-3) | GI50 (HOP-62) | GI50 (SF-295) | GI50 (HOP-92) | GI50 (LOX IMVI) | GI50 (COLO 205) | GI50 (K562) | GI50 (NCI-H460) | GI50 (HCT-116) | GI50 (Hs-578T) | GI50 (UO-31) | GI50 (SF-539) | GI50 (786-0) | GI50 (HT-29) | GI50 (A549) | GI50 (ACHN) | GI50 (UACC-62) | GI50 (SNB-78)
1 | Oc1c(C(Nc2ccccn2)c2ccccc2)ccc2cccnc12 (stereo unspecified) | 4.09 µM (inactive) | 3.5 µM (inactive) | 3.39 µM (inactive) | 4.94 µM (inactive) | 3.55 µM (inactive) | 1.94 µM (inactive) | 2.77 µM (inactive) | 4.74 µM (inactive) | 3.22 µM (inactive) | 2.11 µM (inactive) | 3.26 µM (inactive) | 12.4 µM (inactive) | 3.14 µM (inactive) | 3.18 µM (inactive) | 2.76 µM (inactive) | 4.55 µM (inactive) | 4.35 µM (inactive) | 3.56 µM (inactive) | 4.33 µM (inactive) | 
2 | CCC(c1c[nH]c2ccc(Br)cc12)c1c[nH]c2ccc(Br)cc12 | 2.45 µM (inactive) | 2.75 µM (inactive) | 4.81 µM (inactive) | 10.5 µM (inactive) | 5.92 µM (inactive) | 2.05 µM (inactive) | 2.44 µM (inactive) | 2.42 µM (inactive) | 2.54 µM (inactive) | 2.63 µM (inactive) | 3.94 µM (inactive) | 5.82 µM (inactive) | 6.97 µM (inactive) | 12.5 µM (inactive) | 3.56 µM (inactive) | 3.08 µM (inactive) | 3.72 µM (inactive) | 3.65 µM (inactive) | 10.2 µM (inactive) | 
3 | O=C1CSC(c2ccc(Cl)cc2)N1c1ccc(Oc2ccc(Cl)cc2)c(Cl)c1 (stereo unspecified) | 13.3 µM (inactive) | 14.7 µM (inactive) | 15.2 µM (inactive) | 21.3 µM (inactive) | 16.3 µM (inactive) | 15.7 µM (inactive) | 15.2 µM (inactive) | 18.2 µM (inactive) | 17.3 µM (inactive) | 18.5 µM (inactive) | 15.7 µM (inactive) | 11 µM (inactive) | 8.26 µM (inactive) | 14.6 µM (inactive) | 16.8 µM (inactive) | 18.6 µM (inactive) | 16.2 µM (inactive) | 17.4 µM (inactive) | 15.4 µM (inactive) | 
4 | CCCCCC(O)C1C(=O)OC(C)C(O)/C=C/C=C/C=C/C=C\C=C(\C)C(O)CC(O)CC(O)CC(O)CC(O)CC(O)CC1O (stereo unspecified) | > 50 µM (inactive) | 11.1 µM (inactive) | > 50 µM (inactive) | > 50 µM (inactive) | > 50 µM (inactive) | > 50 µM (inactive) | > 50 µM (inactive) | > 50 µM (inactive) | > 50 µM (inactive) | > 50 µM (inactive) | > 50 µM (inactive) | > 50 µM (inactive) | > 50 µM (inactive) | > 50 µM (inactive) | > 50 µM (inactive) | > 50 µM (inactive) | > 50 µM (inactive) | > 50 µM (inactive) | > 50 µM (inactive) | 
5 | c1cc(CSP234N5CCN2CCN3CCN4CC5)ccc1CSP123N4CCN1CCN2CCN3CC4 | > 100 µM (inactive) | > 100 µM (inactive) | > 100 µM (inactive) | > 100 µM (inactive) | > 100 µM (inactive) | 92.3 µM (inactive) | 49.1 µM (inactive) | > 100 µM (inactive) | < 0.01 µM (active) | > 100 µM (inactive) | 72.8 µM (inactive) | > 100 µM (inactive) | 99.8 µM (inactive) | 64.6 µM (inactive) | > 100 µM (inactive) | 53.2 µM (inactive) | > 100 µM (inactive) | > 100 µM (inactive) | > 100 µM (inactive) | 
6 | CCOC(=O)/C=C/C1(CCOC(C)=O)CCCCC1 | > 10 µM (inactive) | > 10 µM (inactive) | > 10 µM (inactive) | > 10 µM (inactive) | > 10 µM (inactive) | > 10 µM (inactive) | > 10 µM (inactive) | > 10 µM (inactive) | > 10 µM (inactive) | > 10 µM (inactive) | > 10 µM (inactive) | > 10 µM (inactive) | > 10 µM (inactive) | > 10 µM (inactive) | > 10 µM (inactive) | > 10 µM (inactive) | > 10 µM (inactive) | > 10 µM (inactive) | > 10 µM (inactive) | 
7 | OCc1cc2c(ccc3sc4ccc5sc6ccc7ncccc7c6c5c4c32)s1 | 10.6 µM (inactive) | 25.2 µM (inactive) | 5.93 µM (inactive) | 12.7 µM (inactive) | 12.5 µM (inactive) | 29.6 µM (inactive) | 12.6 µM (inactive) | 2.72 µM (inactive) | 22.4 µM (inactive) | 7.08 µM (inactive) | 8.47 µM (inactive) | 8.53 µM (inactive) | 2.11 µM (inactive) | 14.4 µM (inactive) | 3.55 µM (inactive) | 15.5 µM (inactive) | 11.4 µM (inactive) | 31.6 µM (inactive) | 7.45 µM (inactive) | 
8 | COc1ccc(OC(C)C(=O)O)c2c(=O)ccccc12 (stereo unspecified) |  | > 100 µM (inactive) |  | > 100 µM (inactive) | > 100 µM (inactive) |  | > 100 µM (inactive) | > 100 µM (inactive) | > 100 µM (inactive) | > 100 µM (inactive) |  |  | > 100 µM (inactive) | > 100 µM (inactive) | > 100 µM (inactive) | > 100 µM (inactive) | > 100 µM (inactive) | > 100 µM (inactive) | > 100 µM (inactive) | > 100 µM (inactive)
9 | CC(O)C1(CNc2cc(Cl)nc(N)n2)CCCCC1 (stereo unspecified) | > 100 µM (inactive) | 37.3 µM (inactive) | 65.6 µM (inactive) | > 100 µM (inactive) | > 100 µM (inactive) | 69.3 µM (inactive) | 91 µM (inactive) | > 100 µM (inactive) | 69.3 µM (inactive) | > 100 µM (inactive) | > 100 µM (inactive) | > 100 µM (inactive) | 59.2 µM (inactive) | > 100 µM (inactive) | > 100 µM (inactive) | > 100 µM (inactive) | 77.6 µM (inactive) | > 100 µM (inactive) | > 100 µM (inactive) | 
10 | CCOC(=O)c1c(N/C(S)=N/c2ccccc2)sc2c1CCOC2 | 43.3 µM (inactive) | 61.5 µM (inactive) | 61.2 µM (inactive) | 92 µM (inactive) | 46.8 µM (inactive) | 24.9 µM (inactive) | 52.7 µM (inactive) | > 100 µM (inactive) | > 100 µM (inactive) | 40.2 µM (inactive) | 37.2 µM (inactive) | 67.3 µM (inactive) | 45.9 µM (inactive) | > 100 µM (inactive) | > 100 µM (inactive) | 89.9 µM (inactive) | 53.1 µM (inactive) | 97.3 µM (inactive) | 28.9 µM (inactive) | 
11 | CCOC(=O)c1ccc(/N=c2/[nH]c3ccccc3s/c2=N/c2ccc(C(=O)OCC)cc2)cc1 | > 100 µM (inactive) | 33.6 µM (inactive) | > 100 µM (inactive) | > 100 µM (inactive) | 83 µM (inactive) | > 100 µM (inactive) | > 100 µM (inactive) | > 100 µM (inactive) | > 100 µM (inactive) | 40.6 µM (inactive) | 53.1 µM (inactive) | 39.5 µM (inactive) | > 100 µM (inactive) | 72.8 µM (inactive) | 25.4 µM (inactive) | 70.3 µM (inactive) | 95.7 µM (inactive) | 29.1 µM (inactive) | > 100 µM (inactive) | 
12 | CN(CCC#N)c1ccc(/C=C2\SC(=S)NC2=O)cc1 | > 100 µM (inactive) | 62.8 µM (inactive) | 34.3 µM (inactive) | 41.3 µM (inactive) | 35.9 µM (inactive) | 22.6 µM (inactive) | 8.2 µM (inactive) | 48.2 µM (inactive) | 45.4 µM (inactive) | 25.9 µM (inactive) | 29.2 µM (inactive) | 33.3 µM (inactive) | 27.2 µM (inactive) | 49.4 µM (inactive) | 34.8 µM (inactive) | 87.1 µM (inactive) | 34.1 µM (inactive) | 62.4 µM (inactive) | 19.8 µM (inactive) | 
13 | C(/C=N/c1ccccc1)=C(/Nc1ccccc1)c1ccc2ccccc2c1 | 0.667 µM (active) | 1.99 µM (inactive) | 1.55 µM (inactive) | 1.82 µM (inactive) | 1.47 µM (inactive) | 9.62 µM (inactive) | 1.53 µM (inactive) | 1.85 µM (inactive) | 0.897 µM (active) | 2.81 µM (inactive) | 1.87 µM (inactive) | 2.58 µM (inactive) | 3.13 µM (inactive) | 1.83 µM (inactive) | 2.45 µM (inactive) | 1.77 µM (inactive) | 4.08 µM (inactive) | 2.39 µM (inactive) | 0.548 µM (active) | 
14 | CN1C(=O)c2ccccc2OC12C=Cc1c(ccc3ccccc13)O2 (stereo unspecified) | 5.66 µM (inactive) | 5.56 µM (inactive) | 3.27 µM (inactive) | 4.29 µM (inactive) | 2.45 µM (inactive) | 1.85 µM (inactive) | 5.93 µM (inactive) | 3.31 µM (inactive) | 2.82 µM (inactive) | 6.59 µM (inactive) | 4.02 µM (inactive) | 3.85 µM (inactive) | 6.52 µM (inactive) | 5.58 µM (inactive) | 7.19 µM (inactive) | 2.92 µM (inactive) | 3.47 µM (inactive) | 3.1 µM (inactive) | 5.19 µM (inactive) | 
15 | CC1(C)C[C@H]2C3=CC[C@@H]4[C@@]5(C)CC[C@H](O)C(C)(C)[C@@H]5CC[C@@]4(C)[C@]3(C)C[C@@H](O)[C@@]23C[C@@H]1OC3=O | > 100 µM (inactive) | 37.2 µM (inactive) | 68.1 µM (inactive) | > 100 µM (inactive) | 74.6 µM (inactive) | > 100 µM (inactive) | > 100 µM (inactive) | 44.8 µM (inactive) | 97.1 µM (inactive) | 70.3 µM (inactive) | 74 µM (inactive) | > 100 µM (inactive) | > 100 µM (inactive) | > 100 µM (inactive) | > 100 µM (inactive) | 50.2 µM (inactive) | 72.9 µM (inactive) | > 100 µM (inactive) | > 100 µM (inactive) | 
